Laboratory results published in a melting point compilation (Tetko et al.; mined from patent text by program, amines drawn as free bases though some values may be those of a salt).

Molecule CCOC(=O)Cn1c(C(=O)OCC)c(O)c(O)c1C(=O)OCC has a melting point of 121 to 122 °C.
NC(=O)/C=C1/c2cc(F)ccc2CC1O (stereo unspecified) gave a melting point of 201 to 202 °C.
Work on CCOC(=O)c1c[nH]c(=S)n1C1CCc2c(F)cc(F)cc2C1 (stereo unspecified) yielded a melting point of 159 to 161 °C.
N#CC(=Cc1ccc(O)c(O)c1)C(=O)Nc1ccccc1 gave a melting point of 258 °C.
Work on O=c1cc(-c2ccccc2)oc2cc(OCC(O)CCCOC3CCCCO3)ccc12 (stereo unspecified) yielded a melting point of 110 to 112 °C.
With O=[N+]([O-])c1cccc2c(C(F)(F)F)cccc12 the melting point was 107 to 108 °C.
With Clc1c(NC2=NCCO2)ccc2[nH]ncc12 the melting point was 223 to 225 °C.
Molecule CCCC(=O)c1ccc(OC)c(Cl)c1Cl has a melting point of 42 to 44 °C.
For COc1cc(OC(=O)c2cc(O)c(O)c(O)c2)ccc1OC(=O)c1cc(O)c(O)c(O)c1, the melting point was 214 to 216 °C.
In the case of CC(C)(N)CNS(=O)(=O)c1ccccc1, the melting point is reported as 152 to 153 °C.
Molecule COC(=O)c1ccc(-c2ccncc2)cc1 has a melting point of 99 to 101 °C.
Clc1cc(N2CCOCC2)ccc1Nc1ncc2c(Cl)cc(-c3ccccc3)n2n1 showed a melting point of 242 to 244 °C.
In the case of CCOC(=O)c1cn(Cc2ccccc2OC)c2sc(-c3ccc(N)cc3)c(CN(C)Cc3ccccc3)c2c1=O, the melting point is reported as 120 to 122 °C.
Molecule C#CC1(c2ccc(OC)c(OC3CCCC3)c2)CCC2(CC1)OCCO2 has a melting point of 53.5 to 55 °C.
For Cc1nc(C(c2c(Cl)cccc2Cl)n2cncn2)nc(C)c1N (stereo unspecified), the melting point was 158 to 159 °C.
In the case of COC(=O)CCc1cc2cc(Cl)ccc2n1S(=O)(=O)c1cccc2ccccc12, the melting point is reported as 88 to 93 °C.
For C/C(=N\OCCN1CCOCC1)[C@H]1CC[C@H]2[C@@H]3CCC4=CC(=O)CC[C@]4(C)[C@H]3CC[C@]12C, the melting point was 107 to 108 °C.
CCCCCCCCCCCCCCCCCCNC(=O)OC(=O)CCCCCCCCCCC gave a melting point of 83 °C.
COc1ccc(-c2cccc(C(=O)O)c2)c2c1OC(C)(C)C2 showed a melting point of 220 to 225 °C.
Molecule ClC(Cl)(Cl)c1nnc(-c2cccc3ccccc23)o1 has a melting point of 90 to 91.5 °C.
For COc1ccc(/C=C/C(=O)N2CC(CCl)c3c2cc(NC(=O)OC(C)(C)C)c2ccccc32)cc1 (stereo unspecified), the melting point was 185 to 186 °C.
With CCS(=O)(=O)Nc1ccc2c(c1)S(=O)(=O)C=C(c1c(O)c3cc(F)ccc3n(CCC3CC3)c1=O)N2 the melting point was 140 to 142 °C.
CCOc1ccc(C2=NN(C(CC)CCCCC(=O)O)C(=O)C3CCCCC23)cc1OCC (stereo unspecified) gave a melting point of 90 to 91 °C.
In the case of COc1ccc2c(c1)CCC(C=O)=C2C, the melting point is reported as 70 to 72 °C.
For COc1ccc2sc(-c3ccc(OCCN4CCCC4)cc3)cc2c1, the melting point was 123 to 126 °C.
For CC(=O)NCCCCCC1CCSS1 (stereo unspecified), the melting point was 28 to 33 °C.
For Clc1cc2c(nc1-c1ccccc1Br)OCC2, the melting point was 106 to 117 °C.
CCC(C)(C)CNc1c(N=O)c(C)nn1C gave a melting point of 45 to 50 °C.
For CN(C(=O)c1ccc(Cl)c(Cl)c1)c1ccccc1CCC(=O)O, the melting point was 149 to 150 °C.
CC(C)c1cc(C(=O)Nc2ccc(C(=O)O)s2)oc1C(C)C gave a melting point of 227 to 228 °C.
With NC(=O)c1ccc2[nH]nnc2c1 the melting point was 178 to 184 °C.
With CCOC(=O)c1ccc(OCCC2CCN(c3ccc(C)nn3)CC2)s1 the melting point was 114 °C.
Molecule CC1(C)CCC(C)(C)c2cc(-c3ccc4cc(C(=O)O)cc(O)c4c3)ccc21 has a melting point of 299 °C.
In the case of O=C(O)Cc1ccc(CCNC(=O)c2ccccc2)cc1, the melting point is reported as 157 to 158 °C.
For O=C(Oc1ccccc1)c1cccc([N+](=O)[O-])c1Cl, the melting point was 46 to 48 °C.
For O=C1C(c2ccc(O)cc2)=C(c2ccccc2)c2c(O)cc(O)cc21, the melting point was 223 to 225 °C.
In the case of O=S(=O)(Nc1nc2ccccc2nc1Nc1cccc2ccccc12)c1ccc(Cl)cc1, the melting point is reported as 262 to 265 °C.
In the case of CCOc1nc(NCc2ccco2)nc(Nc2cccc(CN3CCOCC3)c2)n1, the melting point is reported as 69 to 71 °C.
O=C1OC(=O)c2cc(Oc3ccc(C(F)(F)F)cc3Cl)ccc21 showed a melting point of 88 to 91 °C.
Work on O=C1c2nc[nH]c2N(Cc2ccccc2)C2=NCCN12 yielded a melting point of 262 to 264 °C.
Work on COC(=O)c1nc(C(=O)c2ccc(N)c(OC)c2)n2ccccc12 yielded a melting point of 63 °C.
